This experiment concerns the target T1, KATP channels (Homo sapiens, UniProt O60706).
T1 construct: TE671 human medulloblastoma cells were obtained from ATCC; host or cells: TE671 human medulloblastoma cells
The experiment is described as follows: Potassium Channel Assay (FLIPR membrane potential, KATP channel opening). Particulars: TE671 human medulloblastoma cells, Membrane Potential Assay Dye, room temperature; for % Stimulation: test concentration not given. It counts as cell-based. As to the method: TE671 human medulloblastoma cells were obtained from ATCC and grown in Dulbecco's modified Eagle's medium (DMEM) supplemented with 10% fetal bovine serum, 100 U/ml penicillin and 100 U/ml streptomycine.
The day before testing, the cells were plated in black 96-well plates at 50K/well. On the day of testing, the growth media was removed, then 100 μl of FLIPR buffer (20 mM HEPES, 120 mM NaCl, 2 mM KCl, 2 mM CaCl2, 1 mM MgCl2, 5 mM Glucose) and 100 μl of Membrane Potential Assay Dye (Molecular Devices) dissolved in FLIPR buffer were added to each well. The cells were incubated at room temperature for 15 to 30 min.
The effect of test compounds on KATP channels were evaluated on a fluorometric imaging plate reader (FLIPR, Molecular Devices) at room temperature. After a baseline period, 50 μl of 5× stock solution of test compound prepared in FLIPR buffer was added and fluorescence change was monitored for 3 minutes. After this reading, glyburide, a KATP channel blocker, was added to a final concentration of 5 μM to check the specificity of the test compound as a KATP channel opener. Hyperpolarization resulting from KATP channel opening was observed as a decrease in fluorescence intensity.

The term pEC50 denotes the EC50 on a negative log10 scale, so that one unit is a factor of ten.

pEC50: −log10 of the molar value.

T1 sequence (O60706 1-1549 isoform O60706-2): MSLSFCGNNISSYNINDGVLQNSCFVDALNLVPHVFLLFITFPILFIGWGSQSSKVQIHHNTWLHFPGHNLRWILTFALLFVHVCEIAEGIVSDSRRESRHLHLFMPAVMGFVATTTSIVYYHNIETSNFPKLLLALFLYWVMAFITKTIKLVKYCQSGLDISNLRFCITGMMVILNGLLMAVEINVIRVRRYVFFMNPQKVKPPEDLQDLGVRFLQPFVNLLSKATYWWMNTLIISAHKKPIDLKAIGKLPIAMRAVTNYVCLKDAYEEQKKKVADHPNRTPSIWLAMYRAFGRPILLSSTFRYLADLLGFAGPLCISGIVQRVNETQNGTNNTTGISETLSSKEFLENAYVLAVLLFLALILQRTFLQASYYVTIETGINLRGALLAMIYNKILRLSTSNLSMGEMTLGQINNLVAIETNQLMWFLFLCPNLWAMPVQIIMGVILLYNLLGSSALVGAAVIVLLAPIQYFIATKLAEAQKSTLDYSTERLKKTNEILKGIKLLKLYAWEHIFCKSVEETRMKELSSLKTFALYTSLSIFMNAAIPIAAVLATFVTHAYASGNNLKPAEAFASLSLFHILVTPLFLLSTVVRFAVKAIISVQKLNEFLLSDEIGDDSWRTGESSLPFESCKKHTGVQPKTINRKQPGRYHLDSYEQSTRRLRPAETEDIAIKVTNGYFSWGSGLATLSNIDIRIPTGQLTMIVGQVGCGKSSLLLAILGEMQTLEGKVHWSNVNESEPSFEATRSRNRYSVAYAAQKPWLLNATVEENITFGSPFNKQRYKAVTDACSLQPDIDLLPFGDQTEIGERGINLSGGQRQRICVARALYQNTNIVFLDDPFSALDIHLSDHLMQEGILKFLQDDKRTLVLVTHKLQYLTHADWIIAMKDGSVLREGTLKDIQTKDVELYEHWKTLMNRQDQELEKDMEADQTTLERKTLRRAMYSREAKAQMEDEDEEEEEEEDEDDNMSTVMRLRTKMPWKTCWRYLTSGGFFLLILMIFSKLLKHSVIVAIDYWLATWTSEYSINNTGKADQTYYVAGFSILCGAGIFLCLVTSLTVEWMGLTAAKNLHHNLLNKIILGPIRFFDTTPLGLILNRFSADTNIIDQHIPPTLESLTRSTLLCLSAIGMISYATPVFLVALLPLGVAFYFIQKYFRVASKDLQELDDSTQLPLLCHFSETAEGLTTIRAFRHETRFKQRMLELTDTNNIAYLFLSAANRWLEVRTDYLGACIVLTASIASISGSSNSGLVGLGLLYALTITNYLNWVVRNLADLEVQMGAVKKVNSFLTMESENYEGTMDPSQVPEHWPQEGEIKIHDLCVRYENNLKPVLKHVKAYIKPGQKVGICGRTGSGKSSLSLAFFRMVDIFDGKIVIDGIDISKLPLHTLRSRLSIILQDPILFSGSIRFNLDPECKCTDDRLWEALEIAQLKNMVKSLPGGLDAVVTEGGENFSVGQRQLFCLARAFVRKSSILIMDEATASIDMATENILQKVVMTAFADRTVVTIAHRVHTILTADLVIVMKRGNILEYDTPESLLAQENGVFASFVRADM
T1 sequence (Q14654 whole entry partner): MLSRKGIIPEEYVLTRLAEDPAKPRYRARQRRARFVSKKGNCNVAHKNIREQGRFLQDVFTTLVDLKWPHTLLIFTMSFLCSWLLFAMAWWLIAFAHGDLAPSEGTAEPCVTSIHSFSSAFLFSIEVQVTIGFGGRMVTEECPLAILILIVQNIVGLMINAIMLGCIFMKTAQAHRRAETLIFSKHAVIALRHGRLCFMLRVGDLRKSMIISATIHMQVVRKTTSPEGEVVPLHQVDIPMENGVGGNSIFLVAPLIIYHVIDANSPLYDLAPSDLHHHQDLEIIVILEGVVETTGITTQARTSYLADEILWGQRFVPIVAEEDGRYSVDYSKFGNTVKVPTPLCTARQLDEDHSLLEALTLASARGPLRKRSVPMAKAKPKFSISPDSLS

In the case of `CCOC(=O)c1cnc2cc(C(F)(F)F)ccc2c1-c1cccc(C(C)=O)c1` [Compound 7, 4-(3-Acetyl-phenyl)-7-trifluoromethyl-quinoline-3-carboxylic acid ethyl ester], the pEC50 was under 4.52 and the “% Stimulation” value was 2%.
Compound `CCOC(=O)c1cnc2cc(C(F)(F)F)ccc2c1-c1cc(C(F)(F)F)cc(C(F)(F)F)c1` [Compound 3, 4-(3,5-Bis-trifluoromethyl-phenyl)-7-trifluoromethyl-quinoline-3-carboxylic acid-ethyl ester] showed a pEC50 of under 4.52.
In the case of `CCOC(=O)c1cnc2cc(C(F)(F)F)ccc2c1-c1cccc(C=O)c1` [Compound 11, 4-(3-Formyl-phenyl)-7-trifluoromethyl-quinoline-3-carboxylic acid ethyl ester], the pEC50 is under 4.52 and the “% Stimulation” value is 2%.
The like results for `CCOC(=O)c1cnc2cc(C(F)(F)F)ccc2c1-c1cccc(CO)c1` [Compound 12, 4-(3-Hydroxymethyl-phenyl)-7-trifluoromethyl-quinoline-3-carboxylic acid ethyl ester] were, in that order, under 4.52 and 20%.
The compound `Cc1cc(C)c(C(O)c2cnccc2-c2cccc(C#N)c2)c(C)c1` (stereo not drawn) [Compound 35, 3-{3-[Hydroxy-(2,4,6-trimethyl-phenyl)-methyl]-pyridin-4-yl}-benzonitrile] showed a pEC50 of under 4.52.
Consider `CC(O)c1cnccc1-c1cccc(C#N)c1` (stereo not drawn) [Compound 52, 3-[3-(1-Hydroxy-ethyl)-pyridin-4-yl]-benzonitrile], for which the pEC50 is 4.76.
`COc1ccc(OC)c(C(O)c2cnccc2C(=O)c2ccccc2)c1` (stereo not drawn) [Compound 46, {3-[(2,5-Dimethoxy-phenyl)-hydroxy-methyl]-pyridin-4-yl}-phenyl-methanone]: the pEC50 is 4.92. This pEC50 and that of the compound before are within 0.2 log units of each other.
Still for that read-out and setting: the figure for `CCOC(=O)c1cnc2cc(C(F)(F)F)ccc2c1-c1cc(C=O)ccc1OC` [Compound 9, 4-(5-Formyl-2-methoxy-phenyl)-7-trifluoromethyl-quinoline-3-carboxylic acid ethyl ester] is 5.11; for `N#Cc1cccc(-c2ccncc2CO)c1` [Compound 50, 3-(3-Hydroxymethyl-pyridin-4-yl)-benzonitrile] it is under 4.52; for `CC(C)C(O)c1cnccc1Br` (stereo not drawn) [Compound 63, 1-(4-Bromo-pyridin-3-yl)-2-methyl-propan-1-ol] it is 5.10.
On the same count and under the same terms, the figure for `N#Cc1cccc(C(=O)c2ccncc2C(O)c2ccccc2)c1` (stereo not drawn) [Compound 48, 3-[3-(Hydroxy-phenyl-methyl)-pyridine-4-carbonyl]-benzonitrile] is 4.84.
Still for that read-out and setting: with `Cc1ccc(C(O)c2cnccc2-c2cccc(C#N)c2)cc1` (stereo not drawn) [Compound 32, 3-{3-[Hydroxy-(4-methyl-phenyl)-methyl]-pyridin-4-yl}-benzonitrile] the figure was 5.07.

For the origin of these results see patent US7790895B2, “Quinoline derivatives as potassium ion channel openers” (Janssen Pharmaceutica NV, priority 2005, dated 2010).
